ChEMBL document CHEMBL3046173, “Synthesis, structure, anticancer, and antioxidant activity of para-xylyl linked bis-benzimidazolium salts and respective dinuclear Ag(I) N-heterocyclic carbene complexes (Part-II)” (Med Chem Res, 2013)

Experiments:
HCT-116 = test: Cytotoxicity against Homo sapiens (human) HCT116 cells assessed as growth inhibition after 48 hr by MTT assay; format: functional, cell-based; details: for IC50: HCT-116, 48 h
[1] = system: Radical scavenging activity; test: Antioxidant activity assessed as inhibition of DPPH free radicals at 400 uM after 30 min by microplate reader analysis relative to control; format: functional

| Compound | growth inhibition (GI) (HCT-116) | IC50 (HCT-116) [µM] | inhibition [1] [%] |
| --- | --- | --- | --- |
| O=c1[nH]cc(F)c(=O)[nH]1 [FLUOROURACIL] | Dose-dependent effect | 19.2 | – |
| O=C(O)c1cc(O)c(O)c(O)c1 | – | – | 77.7 |
| c1ccc2[nH]cnc2c1 [BENZIMIDAZOLE] | Dose-dependent effect | > 200 | 21 |
| CCCCCCCCn1c[n+](Cc2ccc(C[n+]3cn(CCCCCCCC)c4ccccc43)cc2)c2ccccc21 | Dose-dependent effect | 0.9 | 17.9 |
| CCCCCCCCCn1c[n+](Cc2ccc(C[n+]3cn(CCCCCCCCC)c4ccccc43)cc2)c2ccccc21 | Dose-dependent effect | 2.8 | 14.8 |
| CCCCCCCCCCn1c[n+](Cc2ccc(C[n+]3cn(CCCCCCCCCC)c4ccccc43)cc2)c2ccccc21 | Dose-dependent effect | 3.3 | 13.7 |
